Data as given in patent US20260275403A1, “METHOD FOR DETECTION OF NUCLEIC ACID END(S)” (INTODNA SPÓLKA AKCYJNA, priority 2023, published 2026).
“Also recorded” adds a separate entry of the source.

Experiments:
[1] = test system: NCI-H1693 (i.e. HR deficient cell line); test: dSTRIDE-RAD51 (dSTRIDE-HR), RAD51-associated double-strand DNA breaks; type: cell-based, human; details: NCI-H1693, 5 μM or 50 μM etoposide, 48h
Protocol: (§1) • 1. […] (i.e. room temperature) • 2. […] (optional) rinse with PBS
(§2) • 1. TdT reaction at 37° C. with BrdU and TdT enzyme • 2. (optional) rinse with PBS
(§3) • 6. […] 7. […] (optional) PBS rinse • 9. […] (optional) PBS rinse
(§4) • 1. PLA probes binding reaction at 37° C. (Navinci PLA reagents and standard protocol) • 2. Reaction A at 37° C. • 3. Reaction B at 37° C. • 4. Reaction C at 37° C.
(§5) NCI-H1693 and NCI-H661 were purchased from ATCC cell culture collection (18.05.2022). The detailed cell culture description is listed on Table 16. […] The master bank collection was prepared form #1 passage.
(§6) (also included passage number).
(§7) The labelling was performed according to protocols described in Examples 2 or 3.

[2] = test system: NCI-H661 (i.e. HR proficient cell line); test: as above; type: cell-based, human; details: 48h; for number of dSTRIDE-HR (RAD51) foci: NCI-H661, 5 μM or 50 μM etoposide
Protocol: as §1, §2, §3, §4, §5, §6, §7

[3] = test system: NCI-H1693 (i.e. HR deficient) cell line; test: dSTRIDE-RPA, RPA70-associated double-strand DNA breaks; type: cell-based, human; details: 48h
Protocol: as §2
(§8) • 1. […] (optional) PBS rinse • 4. […] (optional) PBS rinse
as §4, §5, §6, §7

[4] = test system: NCI-H661 (i.e. HR proficient cell line); test: as above; type: cell-based, human; details: NCI-H661, 5 μM or 50 μM etoposide, 48h
Protocol: as §2, §8, §4, §5, §6, §7

[5] = test system: NCI-H1693 (i.e. HR deficient) cell line; test: dSTRIDE, double-strand DNA breaks; type: cell-based, human; details: 48h; for number of double-strand DNA breaks detected by dSTRIDE: NCI-H1693, 5 μM or 50 μM etoposide
Protocol: as §5, §6, §7

[6] = test system: NCI-H661 (i.e. HR proficient cell line); test: dSTRIDE, double-strand DNA breaks; type: cell-based, human; details: 48h; for number of double-strand DNA breaks detected by dSTRIDE: NCI-H661, 5 μM or 50 μM etoposide
Protocol: as §5, §6, §7

HAP1 parental cells = details: 6TG at a higher concentration
Protocol: (§9) • 1. Proteinase K treatment of the biological material for 30 seconds (at a concentration of about 7 μg/mL (1:350 dilution of proteinase K stock concentration of 2.5 mg/mL), solution in PBS) at about 22° C. (i.e. room temperature) • 2. (optional) incubation with 1 mM PMSF in PBS for 5 minutes at about 22° C. • 3. (optional) rinse with PBS
(§10) • 5. Polymerase I reaction at 37° C. with polymerase I enzyme, […], biotin-16-dUTP, biotin-16-dCTP, and dGTP • 6. (optional) rinse with buffer
(§11) • 1. (optional) 60 min incubation in Navinci Blocking Buffer at 37° C. • 2. 60 min incubation in 1:100 rabbit monoclonal anti-PMS2 (or PMS1 or MLH1) antibody in Navinci Primary Antibody Diluent at about 22° C. • 3. (optional) PBS rinse • 4. 60 min incubation in 1:100 mouse monoclonal anti-biotin antibody in Navinci Primary Antibody Diluent at about 22° C. • 5. (optional) PBS rinse
(§12) • 1. PLA probes binding reaction at 37° C. (Navinci PLA reagents and standard protocol) • 2. Reaction A at 37° C. • 3. Reaction B at 37° C. • 4. Reaction C at 37° C. […]
(§13) When cell confluence reached 90%, cells were washed with sterile PBS (without Ca^2+ and Mg^2+) and incubated for 2 min with 2 mL of 0.25% trypsin solution with EDTA. Trypsin was inactivated with the culture medium containing FBS and the collected cells were counted in the Burker chamber. […]

HAP1 PMS2 KO cells = details: 6TG 1 uM 48 h treatment
Protocol: as §9, §10, §11, §12, §13

HAP1 cells (WT and KO) = test system: HAP1 cells (WT and KO)
Protocol: as §9, §10, §11, §4
After 24 h of rest the operation medium was changed to a fresh one with supplementation of 1 μM or 10 μM 6-Tioguanine (6TG) in DMSO and left to rest for the incubation time 48h (final DMSO concentration was 0.1% in medium in each experimental condition). […]

human cells U2OS WT = test system: human cells U2OS WT
Protocol: as §9, §10, §11, §4
In vehicle conditions the operation medium was changed to a fresh one with supplementation of 0.1% sterile DMSO and left to rest for the incubation time.

[7] = NCI-H1693 versus NCI-H661, 50 uM etoposide

For `COc1cc([C@@H]2c3cc4c(cc3[C@@H](O[C@@H]3O[C@@H]5CO[C@@H](C)O[C@H]5[C@H](O)[C@H]3O)[C@H]3COC(=O)[C@H]23)OCO4)cc(OC)c1O` [etoposide, Etoposide], which “number of RAD51-associated double-strand DNA breaks detected by dSTRIDE-RAD51” value (“number … by dSTRIDE-RAD51” for short) [1] is on record?
Its value is “no response”.

What about the “number … by dSTRIDE-RAD51” value ([1]; listed as Etoposide) of the same molecule?
Its value is “did not results in a detectable increase; also recorded: no response”.

What about the “number of dSTRIDE-HR (RAD51) foci” value [2] of the same molecule?
Its value is “dose-dependent increase; also recorded: dose-dependent response”.

And the “number of dSTRIDE-HR (RAD51) foci” value ([2]; listed as Etoposide)?
The value was “increase in the number of visible fluorescence foci”.

What about the “number … by dSTRIDE-RAD51” value ([2]; NCI-H661, 50 uM etoposide) of the same molecule?
The value was “significant increase”.

What about the “number of RPA-associated double-strand DNA breaks detected by dSTRIDE-RPA” value ([3]; NCI-H1693, 5 μM or 50 μM etoposide) of the same molecule?
The value was “dose-dependent increase in the number of dSTRIDE-RPA foci”.

And the “dSTRIDE-RPA foci, cell line comparison” value [3, 7]?
Its value is “more dSTRIDE-RPA foci detected in HR deficient cell line”.

And the “number of RPA-associated double-strand DNA breaks detected by dSTRIDE-RPA” value [4]?
Its value is “dose-dependent increase in the number of dSTRIDE-RPA foci; also recorded: dose-dependent response”.

What about the “number of double-strand DNA breaks detected by dSTRIDE” value [5] of the same molecule?
Its value is “increase in the number of double-strand DNA breaks; also recorded: dose-dependent increase in the number of DSBs; also recorded: dose-dependent formation of double-strand DNA breaks”.

And the “number of double-strand DNA breaks detected by dSTRIDE” value ([5]; listed as Etoposide)?
The value was “efficiently induces DSBs”.

And the “increase in DSBs (dSTRIDE), cell line comparison” value ([5]; NCI-H1693, 5 um etoposide)?
The value was “comparable in both cell lines”.

What about the “number of DSBs (dSTRIDE), cell line comparison” value [5, 7] of the same molecule?
Its value is “more profound increase; also recorded: more DSBs are induced in HR deficient than in HR proficient cell lines”.

And the “number of double-strand DNA breaks detected by dSTRIDE” value [6]?
The value was “dose-dependent increase in the number of DSBs; also recorded: dose-dependent response”.

What about the “number of double-strand DNA breaks detected by dSTRIDE” value ([6]; listed as Etoposide) of the same molecule?
The value was “efficiently induces DSBs”.

And the “increase in DSBs (dSTRIDE), cell line comparison” value ([6]; NCI-H661, 5 um etoposide)?
The value was “comparable in both cell lines”.

For `Nc1nc2[nH]cnc2c(=S)[nH]1` [6TG, 6-Tioguanine], which “level of sSTRIDE-MMR signals” value (HAP1 parental cells) is on record?
The value was “elevated level of sSTRIDE-MMR signals”.

And the “number of sSTRIDE-MMR fluorescence foci” value (HAP1 PMS2 KO cells)?
Its value is “does not result in a significant increase”.

What about the “sSTRIDE-MMR (MLH1) readouts” value (HAP1 cells (WT and KO); HAP1 PMS2 WT and KO, 6TG treatment) of the same molecule?
The value was “increase in sSTRIDE-MMR (MLH1) readouts”.

What about the “PMS1 at SSBs (sSTRIDE-PMS1)” value (HAP1 cells (WT and KO); after treatment with 6TG) of the same molecule?
Its value is “engaged in MMR processes”.

What about the “maximum number of sSTRIDE MMR foci per nucleus” value (human cells U2OS WT; Sample 4, 6TG treated U2OS WT cells, 48 h (6TG 100nM per Table 3), antigen retrieval 1 (proteinase K 2 min)) of the same molecule?
Its value is 3 foci per nucleus.

And the “response in number of foci detected after 6TG treatment (quantitative image analysis)” value (human cells U2OS WT; U2OS WT, 6TG 48 h, antigen retrieval 1 (proteinase K 2 min))?
Its value is “no response”.

And the “number of foci in the nucleus after treatment” value (human cells U2OS WT; U2OS WT, 48 h 6TG in different concentration, Abcam antibody, antigen retrieval method v2)?
Its value is “did not significantly increase number of foci”.

What about the “sSTRIDE MMR readouts level of 6TG treated cells versus non-treated samples” value (human cells U2OS WT; U2OS WT, Abcam antibody, 6TG 250 nM-10 μM, 24 h or 48 h, antigen retrieval method 2) of the same molecule?
Its value is “lower than in the non-treated samples”.
